Laboratory results from US4420643A, “Extraction of phenols from aqueous solutions” (priority 1982, dated 1983).

How the values were obtained:
[1] = Extraction of phenol from 1% aqueous solution with high boiling solvents alone and with TOPO (Example 3, Table III); type: physicochemical; conditions: 24° C., 10 minutes
Experimental: A number of high boiling solvents, which would allow recovery of the extracted phenol without the necessity of distilling the solvent, were evaluted and the distribution coefficient calculated for the solvent alone and containing 133 g/l of TOPO. The aqueous solution extracted contained 1% phenol, which was contacted with the solvent or solvent plus TOPO for 10 minutes at 24° C.

[2] = Concentration of TOPO obtainable in the extraction solution; type: physicochemical
Excerpt: It is advantageous in solvent extraction to maximize the loading of the extracted compound in the organic phase. This also permits a higher ratio of aqueous phase to organic phase (A/O) in the extraction process, that is, a greater volume of aqueous solution treated per volume of organic extractant. It is therefore desirable to maximize the concentration of phosphine oxide in the extraction solution. With TOPO, solutions containing in excess of 30% by weight are readily obtained.

[3] = Water solubility of the solvents
[4] = solvent + TOPO 133 g/l (head: TOPA), A/O = 0.5
[5] = solvent + TOPO 133 g/l, A/O = 1

Compound | C aq. Final (phenol) [1, 4] [ppm] | C aq. Final (phenol) [1, 5] [ppm] | C aq. Final (phenol) ([1]; solvent alone, A/O = 1) [ppm] | TOPO concentration of solutions readily obtained [2] [% by weight] | water solubility [3]
O=C(c1ccccc1)c1ccccc1 [Benzophenone] | 37 | 85 | – | – | –
CC(C)CC(=O)CC(C)C [DIBK, diisobutylketone, reference compound] | 26 | 60 | 285 | – | –
CC(C)OC(C)C [Diisopropyl ether, diisopropyl ether, reference compound] | – | – | 419 | – | –
c1ccc(Oc2ccccc2)cc1 [Diphenyl ether] | 23 | 55 | 3075 | – | –
c1ccc(Cc2ccccc2)cc1 [Diphenyl methane] | 21 | 59 | – | – | –
CC(=O)CC(C)C [Methyl isobutyl ketone, reference compound] | 24 | 43 | 130 | – | –
CCCCCCCCP(=O)(CCCCCCCC)CCCCCCCC [TOPO, tri-n-octylphosphine oxide] | – | – | – | > 30 | –
CCCCCCCCCCCCCO [Tridecanol] | 128 | 515 | 531 | – | –
Diisopropyl naphthalene | 18 | 46 | 5590 | – | negligible water solubility
Isopropyl naphthalene | 18 | 45 | 4690 | – | negligible water solubility
